Where two headings read alike, the source gives them in different places.
How the values were obtained:
[1] = molecular target: panel of more than 300 wild-type and mutant kinases (313 kinase panel) (Homo sapiens, UniProt Q16288); assay: Kinase profiling in a biochemical assay panel (mobility shift assays and ELISA), %-inhibition at 1 μM; selectivity entropy; details: kinase TRKC; 1 μM
[2] = molecular target: T1, panel of more than 300 wild-type and mutant kinases (313 kinase panel) (Homo sapiens, UniProt Q96PF2); assay: as above; details: kinase TSSK2; 1 μM
T1 sequence (Q96PF2 1-358): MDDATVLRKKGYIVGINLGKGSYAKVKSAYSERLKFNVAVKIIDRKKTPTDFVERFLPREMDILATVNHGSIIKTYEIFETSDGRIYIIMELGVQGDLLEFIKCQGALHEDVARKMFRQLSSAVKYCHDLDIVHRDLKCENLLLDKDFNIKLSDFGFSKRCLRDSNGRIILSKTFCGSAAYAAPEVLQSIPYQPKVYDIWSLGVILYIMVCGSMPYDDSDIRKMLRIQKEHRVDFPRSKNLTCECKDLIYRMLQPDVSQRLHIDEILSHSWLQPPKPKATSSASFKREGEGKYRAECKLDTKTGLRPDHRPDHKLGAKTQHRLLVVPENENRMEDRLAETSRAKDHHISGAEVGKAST

[3] = molecular target: panel of more than 300 wild-type and mutant kinases (313 kinase panel) (Homo sapiens, UniProt O95819); assay: as above; details: kinase HGK; compound at 1 μM
[4] = molecular target: panel of more than 300 wild-type and mutant kinases (313 kinase panel) (Homo sapiens, UniProt Q9H2G2); assay: as above; details: kinase SLK; 1 μM
[5] = molecular target: panel of more than 300 wild-type and mutant kinases (313 kinase panel) (Homo sapiens, UniProt Q15303); assay: as above; details: kinase HER4; compound at 1 μM
panel of more than 300 wild-type and mutant kinases (313 kinase panel) (Homo sapiens, UniProt Q15303), sequence (Q15303 26-1308, change not shown): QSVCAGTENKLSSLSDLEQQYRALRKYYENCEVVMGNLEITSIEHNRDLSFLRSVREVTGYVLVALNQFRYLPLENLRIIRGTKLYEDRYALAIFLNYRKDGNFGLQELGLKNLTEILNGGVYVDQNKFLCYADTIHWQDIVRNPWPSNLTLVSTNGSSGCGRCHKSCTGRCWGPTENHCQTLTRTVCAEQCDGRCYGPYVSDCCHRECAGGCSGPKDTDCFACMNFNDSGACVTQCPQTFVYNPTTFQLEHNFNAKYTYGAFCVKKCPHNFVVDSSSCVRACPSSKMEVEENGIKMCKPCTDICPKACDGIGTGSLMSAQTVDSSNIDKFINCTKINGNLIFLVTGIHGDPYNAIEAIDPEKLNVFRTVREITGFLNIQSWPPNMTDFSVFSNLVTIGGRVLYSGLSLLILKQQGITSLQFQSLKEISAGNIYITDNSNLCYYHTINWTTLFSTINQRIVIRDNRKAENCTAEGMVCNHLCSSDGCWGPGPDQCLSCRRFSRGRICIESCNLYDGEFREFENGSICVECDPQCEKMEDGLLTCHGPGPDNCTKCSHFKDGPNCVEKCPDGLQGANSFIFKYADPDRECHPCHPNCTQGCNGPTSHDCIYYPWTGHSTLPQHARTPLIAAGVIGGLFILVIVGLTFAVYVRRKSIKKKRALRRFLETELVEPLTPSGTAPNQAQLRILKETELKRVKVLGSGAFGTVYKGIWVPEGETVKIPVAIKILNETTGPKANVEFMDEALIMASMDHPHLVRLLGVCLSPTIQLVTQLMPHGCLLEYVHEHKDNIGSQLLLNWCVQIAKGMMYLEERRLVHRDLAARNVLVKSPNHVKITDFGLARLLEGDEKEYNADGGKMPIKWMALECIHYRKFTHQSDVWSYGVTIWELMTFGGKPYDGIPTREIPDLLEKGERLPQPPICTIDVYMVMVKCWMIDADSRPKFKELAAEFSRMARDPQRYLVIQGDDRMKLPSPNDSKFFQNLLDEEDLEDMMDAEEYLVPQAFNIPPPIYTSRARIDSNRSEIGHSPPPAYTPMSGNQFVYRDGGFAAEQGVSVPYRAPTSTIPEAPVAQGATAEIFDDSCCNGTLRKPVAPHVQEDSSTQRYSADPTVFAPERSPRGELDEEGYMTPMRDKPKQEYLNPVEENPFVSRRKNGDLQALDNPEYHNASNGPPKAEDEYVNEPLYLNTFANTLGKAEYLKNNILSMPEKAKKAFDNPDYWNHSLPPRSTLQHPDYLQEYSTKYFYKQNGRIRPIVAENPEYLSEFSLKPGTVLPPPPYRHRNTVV

[6] = molecular target: T2, panel of more than 300 wild-type and mutant kinases (313 kinase panel) (Homo sapiens, UniProt O14920); assay: as above; details: kinase IKKβ; compound at 1 μM
T2 sequence (O14920 1-756): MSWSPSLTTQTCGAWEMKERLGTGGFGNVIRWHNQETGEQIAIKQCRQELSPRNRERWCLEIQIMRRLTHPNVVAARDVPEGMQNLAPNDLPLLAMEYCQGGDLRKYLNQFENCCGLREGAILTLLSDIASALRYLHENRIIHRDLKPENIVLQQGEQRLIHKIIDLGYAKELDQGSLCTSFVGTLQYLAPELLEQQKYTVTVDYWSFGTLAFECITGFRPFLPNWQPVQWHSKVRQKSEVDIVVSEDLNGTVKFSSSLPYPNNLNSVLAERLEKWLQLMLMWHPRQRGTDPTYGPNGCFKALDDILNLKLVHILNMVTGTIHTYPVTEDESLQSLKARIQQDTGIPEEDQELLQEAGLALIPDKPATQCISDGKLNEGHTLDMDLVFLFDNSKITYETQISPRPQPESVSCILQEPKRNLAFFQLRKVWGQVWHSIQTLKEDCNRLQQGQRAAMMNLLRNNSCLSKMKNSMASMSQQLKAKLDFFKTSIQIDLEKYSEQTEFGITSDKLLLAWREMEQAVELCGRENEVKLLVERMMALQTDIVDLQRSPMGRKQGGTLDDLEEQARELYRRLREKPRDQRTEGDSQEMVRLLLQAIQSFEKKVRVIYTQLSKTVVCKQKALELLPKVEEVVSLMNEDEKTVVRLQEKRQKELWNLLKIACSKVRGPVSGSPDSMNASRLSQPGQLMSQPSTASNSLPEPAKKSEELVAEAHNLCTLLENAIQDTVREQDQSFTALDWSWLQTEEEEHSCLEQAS

[7] = molecular target: panel of more than 300 wild-type and mutant kinases (313 kinase panel) (Homo sapiens, UniProt P29376); assay: as above; details: kinase LTK; compound at 1 μM
[8] = molecular target: panel of more than 300 wild-type and mutant kinases (313 kinase panel) (Homo sapiens, UniProt Q9H1R3); assay: as above; details: kinase skMLCK; 1 μM
[9] = molecular target: panel of more than 300 wild-type and mutant kinases (313 kinase panel) (Homo sapiens, UniProt Q13177); assay: as above; details: kinase PAK2; 1 μM
[10] = system: forty-four human cancer cell lines; assay: Cell proliferation assay (ATPlite, 72 hours) in the 44 cell line Oncolines panel; assay type: cell-based; details: Homo sapiens

## CO[C@H]1C[C@@H]2CC[C@@H](C)[C@@](O)(O2)C(=O)C(=O)N2CCCC[C@H]2C(=O)O[C@H]([C@H](C)C[C@@H]2CC[C@@H](OCCO)[C@H](OC)C2)CC(=O)[C@H](C)/C=C(\C)[C@@H](O)[C@@H](OC)C(=O)[C@H](C)C[C@H](C)/C=C/C=C/C=C/1C [everolimus]
[1]
  %-inhibition of TRKC: -5%
[2]
  %-inhibition of TSSK2: -11%
[3]
  %-inhibition of HGK: 0.896%
[4]
  %-inhibition of SLK: -2.67%
[5]
  %-inhibition of HER4: -7%
[6]
  %-inhibition of IKKβ: -3%
[7]
  %-inhibition of LTK: -12%
[8]
  %-inhibition of skMLCK: -8%
[9]
  %-inhibition of PAK2: -8%
[10]; 769-P, cell line 769-P, read-out: cell panel IC50, 769-P
  IC50: 373 nM
[10]; 786-0, cell line 786-0, read-out: cell panel IC50, 786-0
  IC50: 204 nM
[10]; A 172, read-out: cell panel IC50, A-172, cell line A-172
  IC50: 50 nM
[10]; A204, cell line A-204, read-out: cell panel IC50, A-204
  IC50: 11900 nM
[10]; A498, read-out: cell panel IC50, A-498, cell line A-498
  IC50: 1240 nM
[10]; A549, read-out: cell panel IC50, A-549, cell line A-549
  IC50: 732 nM
[10]; A-375, cell line A375, read-out: cell panel IC50, A375
  IC50: 18700 nM
[10]; A-427, read-out: cell panel IC50, A-427, cell line A-427
  IC50: 94 nM
[10]; ACHN, cell line ACHN, read-out: cell panel IC50, ACHN
  IC50: 15100 nM
[10]; AN3-CA, cell line AN3 CA, read-out: cell panel IC50, AN3 CA
  IC50: 104 nM
[10]; AU565, read-out: cell panel IC50, AU-565, cell line AU-565
  IC50: 27300 nM
[10]; BT-20, cell line BT-20, read-out: cell panel IC50, BT-20
  IC50: 7 nM
[10]; BT-549, read-out: cell panel IC50, BT-549, cell line BT-549
  IC50: 58 nM
[10]; BXPC-3, cell line BxPC-3, read-out: cell panel IC50, BxPC-3
  IC50: > 31600 nM
[10]; C-33-A, cell line C-33 A, read-out: cell panel IC50, C-33 A
  IC50: 20 nM
[10]; CAL-27, cell line CAL 27, read-out: cell panel IC50, CAL 27
  IC50: 2690 nM
[10]; CCRF-CEM, cell line CCRF-CEM, read-out: cell panel IC50, CCRF-CEM
  IC50: 1420 nM
[10]; DLD-1, cell line DLD-1, read-out: cell panel IC50, DLD-1
  IC50: 495 nM
[10]; FaDu, cell line FaDu, read-out: cell panel IC50, FaDu
  IC50: 1170 nM
[10]; HCT-15, cell line HCT-15, read-out: cell panel IC50, HCT-15
  IC50: 292 nM
[10]; HCT-116, read-out: cell panel IC50, HCT-116, cell line HCT-116
  IC50: 19100 nM
[10]; Hs-578T, cell line Hs 578T, read-out: cell panel IC50, Hs 578T
  IC50: 49 nM
[10]; Jurkat E6.1, cell line Jurkat E6.1, read-out: cell panel IC50, Jurkat E6.1
  IC50: 63 nM
[10]; K562, read-out: cell panel IC50, K-562, cell line K-562
  IC50: > 31600 nM
[10]; LS174T, read-out: cell panel IC50, LS 174T, cell line LS 174T
  IC50: > 31600 nM
[10]; LoVo, cell line LoVo, read-out: cell panel IC50, LoVo
  IC50: > 31600 nM
[10]; MG-63, cell line MG-63, read-out: cell panel IC50, MG-63
  IC50: 453 nM
[10]; MOLT-4, cell line MOLT-4, read-out: cell panel IC50, MOLT-4
  IC50: 153 nM
[10]; MeWo, cell line MeWo, read-out: cell panel IC50, MeWo
  IC50: > 31600 nM
[10]; NCI-H82, cell line NCI-H82, read-out: cell panel IC50, NCI-H82
  IC50: 4780 nM
[10]; NCI-H460, cell line NCI-H460, read-out: cell panel IC50, NCI-H460
  IC50: 3970 nM
[10]; OVCAR-3, cell line OVCAR-3, read-out: cell panel IC50, OVCAR-3
  IC50: 471 nM
[10]; RPMI-7951, cell line RPMI-7951, read-out: cell panel IC50, RPMI-7951
  IC50: 1.2 nM
[10]; SHP77, cell line SHP-77, read-out: cell panel IC50, SHP-77
  IC50: > 31600 nM
[10]; SK-N-AS, cell line SK-N-AS, read-out: cell panel IC50, SK-N-AS
  IC50: 299 nM
[10]; SW48, cell line SW48, read-out: cell panel IC50, SW48
  IC50: 18800 nM
[10]; SW480, cell line SW480, read-out: cell panel IC50, SW480
  IC50: 14800 nM
[10]; SW-620, cell line SW620, read-out: cell panel IC50, SW620
  IC50: 16700 nM
[10]; U2OS, cell line U-2 OS, read-out: cell panel IC50, U-2 OS
  IC50: 4250 nM
[10]; cell line J82, read-out: cell panel IC50, J82
  IC50: 433 nM
[10]; cell line PA-1, read-out: cell panel IC50, PA-1
  IC50: 3350 nM
[10]; cell line SJCRH30, read-out: cell panel IC50, SJCRH30
  IC50: 28400 nM
[10]; cell line SR, read-out: cell panel IC50, SR
  IC50: 109 nM
[10]; U-87 MG cell line, ATPlite, 72 hours, read-out: IC50 in cell proliferation assay (table S5 cellpanel data)
  IC50: 652 nM

Reference: article PMC3961306, “Comparison of the Cancer Gene Targeting and Biochemical Selectivities of All Targeted Kinase Inhibitors Approved for Clinical Use” (PLoS ONE, 2014)
